{"source": "patent US20250092056A1", "about": "“URACIL DERIVATIVES HAVING VIRUS REPLICATION INHIBITORY ACTIVITY AND PHARMACEUTICAL COMPOSITION COMPRISING THE SAME” (Shionogi & Co., Ltd., priority 2022, published 2025)", "data": [{"test_system": "SARS-CoV-2", "test": "Cytopathic effect (CPE) suppression effect confirmation test using HEK293T/ACE2-TMPRSS2 cells", "format": "cell-based", "details": "Severe acute respiratory syndrome coronavirus 2, HEK-293T; 50% SARS-CoV-2 infected cell death inhibitory concentration; HEK293T/ACE2-TMPRSS2 cells; read-out: EC50", "units": {"EC50": "nM"}, "values": [{"smiles": "Cc1cc(-c2c(-c3ccc(F)c(Cl)c3)c(=O)n(-c3cncc(Cl)c3)c(=O)n2CC#N)on1", "note": "[Compound I-314]", "EC50": "< 100"}, {"smiles": "N#CCn1c(N2CC(O)C2)c(-c2ccc(F)c(C(F)F)c2)c(=O)n(-c2cncc(C#N)c2)c1=O", "note": "[Compound I-416]", "EC50": "< 100"}, {"smiles": "N#CCn1c(N2CC3(C2)CC(F)(F)C3)c(-c2ccc(F)c(Cl)c2)c(=O)n(-c2cncc(C(F)(F)F)n2)c1=O", "note": "[Compound I-207]", "EC50": "< 100"}, {"smiles": "N#CCn1c(N2CC3(C2)CC(F)(F)C3)c(-c2ccc(F)c(Cl)c2)c(=O)n(-c2cncc(OCF)c2)c1=O", "note": "[Compound I-325]", "EC50": "< 100"}, {"smiles": "N#CCn1c(N2CC3(C2)CC(F)(F)C3)c(-c2ccc(F)c(Cl)c2)c(=O)n(-c2cncc(F)c2)c1=O", "note": "[Compound I-231]", "EC50": "< 100"}, {"smiles": "N#CCn1c(N2CCC(C(F)(F)F)CC2)c(-c2ccc(F)c(C#N)c2)c(=O)n(-c2cncc(Cl)c2)c1=O", "note": "[Compound I-402]", "EC50": "< 100"}, {"smiles": "N#CCn1c(N2CC(F)C2)c(-c2ccc(F)c(Cl)c2)c(=O)n(-c2cncc(Cl)c2)c1=O", "note": "[Compound I-309]", "EC50": "< 100"}, {"smiles": "N#CCn1c(N2CC(O)C2)c(-c2ccc(F)c(F)c2)c(=O)n(-c2cncc(Cl)c2)c1=O", "note": "[Compound I-322]", "EC50": "< 100"}, {"smiles": "N#CCc1cncc(-n2c(=O)c(-c3ccc(F)c(Cl)c3)c(N3CC4(C3)CC(F)(F)C4)n(CC#N)c2=O)n1", "note": "[Compound I-209]", "EC50": "< 100"}, {"smiles": "N#CCn1c(N2CC(O)(c3ncccn3)C2)c(-c2ccc(F)c(F)c2)c(=O)n(-c2cncc(Cl)c2)c1=O", "note": "[Compound I-321]", "EC50": "< 100"}, {"smiles": "N#CCn1c(N2CC3(C2)CC(F)(F)C3)c(-c2ccc(F)c(Cl)c2)c(=O)n(CC#N)c1=O", "note": "[Compound I-210]", "EC50": "100 to 1000"}, {"smiles": "N#CCn1c(N2CC(OC(F)F)C2)c(-c2ccc(F)c(F)c2)c(=O)n(-c2cncc(Cl)c2)c1=O", "note": "[Compound I-319]", "EC50": "< 100"}, {"smiles": "C[C@](O)(CCc1c(-c2ccc(F)c(Cl)c2)c(=O)n(-c2cncc(Cl)c2)c(=O)n1CC#N)C(F)F", "note": "(single isomer, unassigned) [Compound I-392]", "EC50": "< 100"}, {"smiles": "N#CCn1c(N2CC(C(F)(F)F)C2)c(-c2ccc(F)c(F)c2)c(=O)n(-c2cncc(Cl)c2)c1=O", "note": "[Compound I-316]", "EC50": "< 100"}, {"smiles": "N#CCn1c(N2CC3(C2)CC(F)(F)C3)c(-c2ccc(F)c(Cl)c2)c(=O)n(-c2cncc(C#N)n2)c1=O", "note": "[Compound I-206]", "EC50": "< 100"}, {"smiles": "N#CCn1c(N2CC(OC(F)F)C2)c(-c2ccc(F)c(C(F)F)c2)c(=O)n(-c2cncc(C#N)c2)c1=O", "note": "[Compound I-415]", "EC50": "< 100"}, {"smiles": "C[C@@H](C#N)n1c(N2CC[C@](O)(C(F)F)C2)c(-c2ccc(F)c(F)c2)c(=O)n(-c2cncc(Cl)c2)c1=O", "note": "(single isomer, unassigned) [Compound I-434]", "EC50": "< 100"}, {"smiles": "N#CCn1cc(-c2ccc(F)c(Cl)c2)c(=O)n(-c2cncc(Cl)c2)c1=O", "note": "[Compound I-281]", "EC50": "< 100"}, {"smiles": "Cc1cncc(-n2c(=O)c(-c3ccc(F)c(Cl)c3)c(N3CC(O)(c4ncccn4)C3)n(CC#N)c2=O)n1", "note": "[Compound I-337]", "EC50": "< 100"}, {"smiles": "N#CCn1c(N2CCCO2)c(-c2ccc(F)c(Cl)c2)c(=O)n(-c2cncc(Cl)c2)c1=O", "note": "[Compound I-242]", "EC50": "< 100"}, {"smiles": "CNc1cnnc(-n2c(=O)c(-c3ccc(F)c(Cl)c3)c(N3CC4(C3)CC(F)(F)C4)n(CC#N)c2=O)c1", "note": "[Compound I-218]", "EC50": "1000 to 5000"}, {"smiles": "C[C@@H](C#N)n1c(N2CC[C@@](O)(C(F)F)C2)c(-c2ccc(F)c(C#N)c2)c(=O)n(-c2cncc(Cl)c2)c1=O", "note": "(single isomer, unassigned) [Compound I-427]", "EC50": "< 100"}, {"smiles": "N#CCn1c(N2CC(OC(F)(F)F)C2)c(-c2ccc(F)c(Cl)c2)c(=O)n(-c2cncc(C#N)c2)c1=O", "note": "[Compound I-311]", "EC50": "< 100"}, {"smiles": "N#CCn1c(CCC2(O)CCC2)c(-c2ccc(F)c(C(F)F)c2)c(=O)n(-c2cncc(Cl)c2)c1=O", "note": "[Compound I-425]", "EC50": "< 100"}, {"smiles": "Cc1cnc(F)c(-n2c(=O)c(-c3ccc(F)c(Cl)c3)c(N3CC4(C3)CC(F)(F)C4)n(CC#N)c2=O)c1", "note": "[Compound I-255]", "EC50": "< 100"}]}, {"target": "Recombinant SARS-CoV-2 3CL Protease (Severe acute respiratory syndrome coronavirus 2 (2019-nCoV) (SARS-CoV-2), UniProt P0DTD1)", "test": "biochemical", "format": "biochemical", "details": "50% SARS-CoV-2 3CL protease inhibitory concentration; read-out: IC50", "units": {"IC50": "nM"}, "values": [{"smiles": "Cc1cc(-c2c(-c3ccc(F)c(Cl)c3)c(=O)n(-c3cncc(Cl)c3)c(=O)n2CC#N)on1", "note": "[Compound I-314]", "IC50": "< 10"}, {"smiles": "N#CCn1c(N2CC(O)C2)c(-c2ccc(F)c(C(F)F)c2)c(=O)n(-c2cncc(C#N)c2)c1=O", "note": "[Compound I-416]", "IC50": "< 10"}, {"smiles": "N#CCn1c(N2CC3(C2)CC(F)(F)C3)c(-c2ccc(F)c(Cl)c2)c(=O)n(-c2cncc(C(F)(F)F)n2)c1=O", "note": "[Compound I-207]", "IC50": "< 10"}, {"smiles": "N#CCn1c(N2CC3(C2)CC(F)(F)C3)c(-c2ccc(F)c(Cl)c2)c(=O)n(-c2cncc(OCF)c2)c1=O", "note": "[Compound I-325]", "IC50": "< 10"}, {"smiles": "N#CCn1c(N2CC3(C2)CC(F)(F)C3)c(-c2ccc(F)c(Cl)c2)c(=O)n(-c2cncc(F)c2)c1=O", "note": "[Compound I-231]", "IC50": "< 10"}, {"smiles": "N#CCn1c(N2CCC(C(F)(F)F)CC2)c(-c2ccc(F)c(C#N)c2)c(=O)n(-c2cncc(Cl)c2)c1=O", "note": "[Compound I-402]", "IC50": "< 10"}, {"smiles": "N#CCn1c(N2CC(F)C2)c(-c2ccc(F)c(Cl)c2)c(=O)n(-c2cncc(Cl)c2)c1=O", "note": "[Compound I-309]", "IC50": "< 10"}, {"smiles": "N#CCn1c(N2CC(O)C2)c(-c2ccc(F)c(F)c2)c(=O)n(-c2cncc(Cl)c2)c1=O", "note": "[Compound I-322]", "IC50": "< 10"}, {"smiles": "N#CCc1cncc(-n2c(=O)c(-c3ccc(F)c(Cl)c3)c(N3CC4(C3)CC(F)(F)C4)n(CC#N)c2=O)n1", "note": "[Compound I-209]", "IC50": "< 10"}, {"smiles": "N#CCn1c(N2CC(O)(c3ncccn3)C2)c(-c2ccc(F)c(F)c2)c(=O)n(-c2cncc(Cl)c2)c1=O", "note": "[Compound I-321]", "IC50": "< 10"}, {"smiles": "N#CCn1c(N2CC3(C2)CC(F)(F)C3)c(-c2ccc(F)c(Cl)c2)c(=O)n(CC#N)c1=O", "note": "[Compound I-210]", "IC50": "> 100"}, {"smiles": "N#CCn1c(N2CC(OC(F)F)C2)c(-c2ccc(F)c(F)c2)c(=O)n(-c2cncc(Cl)c2)c1=O", "note": "[Compound I-319]", "IC50": "< 10"}, {"smiles": "C[C@](O)(CCc1c(-c2ccc(F)c(Cl)c2)c(=O)n(-c2cncc(Cl)c2)c(=O)n1CC#N)C(F)F", "note": "(single isomer, unassigned) [Compound I-392]", "IC50": "< 10"}, {"smiles": "N#CCn1c(N2CC(C(F)(F)F)C2)c(-c2ccc(F)c(F)c2)c(=O)n(-c2cncc(Cl)c2)c1=O", "note": "[Compound I-316]", "IC50": "< 10"}, {"smiles": "N#CCn1c(N2CC3(C2)CC(F)(F)C3)c(-c2ccc(F)c(Cl)c2)c(=O)n(-c2cncc(C#N)n2)c1=O", "note": "[Compound I-206]", "IC50": "< 10"}, {"smiles": "N#CCn1c(N2CC(OC(F)F)C2)c(-c2ccc(F)c(C(F)F)c2)c(=O)n(-c2cncc(C#N)c2)c1=O", "note": "[Compound I-415]", "IC50": "< 10"}, {"smiles": "C[C@@H](C#N)n1c(N2CC[C@](O)(C(F)F)C2)c(-c2ccc(F)c(F)c2)c(=O)n(-c2cncc(Cl)c2)c1=O", "note": "(single isomer, unassigned) [Compound I-434]", "IC50": "< 10"}, {"smiles": "N#CCn1cc(-c2ccc(F)c(Cl)c2)c(=O)n(-c2cncc(Cl)c2)c1=O", "note": "[Compound I-281]", "IC50": "10 to 100"}, {"smiles": "Cc1cncc(-n2c(=O)c(-c3ccc(F)c(Cl)c3)c(N3CC(O)(c4ncccn4)C3)n(CC#N)c2=O)n1", "note": "[Compound I-337]", "IC50": "< 10"}, {"smiles": "N#CCn1c(N2CCCO2)c(-c2ccc(F)c(Cl)c2)c(=O)n(-c2cncc(Cl)c2)c1=O", "note": "[Compound I-242]", "IC50": "10 to 100"}, {"smiles": "CNc1cnnc(-n2c(=O)c(-c3ccc(F)c(Cl)c3)c(N3CC4(C3)CC(F)(F)C4)n(CC#N)c2=O)c1", "note": "[Compound I-218]", "IC50": "< 10"}, {"smiles": "C[C@@H](C#N)n1c(N2CC[C@@](O)(C(F)F)C2)c(-c2ccc(F)c(C#N)c2)c(=O)n(-c2cncc(Cl)c2)c1=O", "note": "(single isomer, unassigned) [Compound I-427]", "IC50": "< 10"}, {"smiles": "N#CCn1c(N2CC(OC(F)(F)F)C2)c(-c2ccc(F)c(Cl)c2)c(=O)n(-c2cncc(C#N)c2)c1=O", "note": "[Compound I-311]", "IC50": "< 10"}, {"smiles": "N#CCn1c(CCC2(O)CCC2)c(-c2ccc(F)c(C(F)F)c2)c(=O)n(-c2cncc(Cl)c2)c1=O", "note": "[Compound I-425]", "IC50": "< 10"}, {"smiles": "Cc1cnc(F)c(-n2c(=O)c(-c3ccc(F)c(Cl)c3)c(N3CC4(C3)CC(F)(F)C4)n(CC#N)c2=O)c1", "note": "[Compound I-255]", "IC50": "< 10"}]}]}
